From a melting point compilation (Tetko et al.; mined from patent text by program, amines drawn as free bases though some values may be those of a salt)

Compound `CCOC(=O)C(CC)C(=O)N1NCCCC1C(=O)OC(C)(C)C` (stereo not given) has a melting point of 78 to 79 °C.
`CNC(=O)c1cc(Cl)cc(Cl)c1NC(=O)c1cc(Br)nn1-c1ccccc1Cl` showed a melting point of 209 to 210 °C.
`CCOC(=O)c1c(NC=CC(=O)C(C)C)sc(-c2ccccc2)c1C` showed a melting point of 104 to 108 °C.
Work on `COc1c(Cl)ccc(-c2nc(OC)c3c(ncn3C)n2)c1F` yielded a melting point of 191 to 192 °C.
In the case of `O=C(O)Cn1cccc(NS(=O)(=O)Cc2ccccc2)c1=O`, the melting point was 186 to 187 °C.
In the case of `CCOC(=O)c1nn(-c2ccccc2)c2c1CSc1ccccc1-2`, the melting point was 139 to 141 °C.
In the case of `CCOC(=O)n1c(=O)[nH]c2cc(OC)ccc21`, the melting point was 180 to 183 °C.
In the case of `COc1cc2c(cc1Nc1ncc(Cl)c(Nc3ccccc3S(=O)(=O)N(C)C)n1)CCN(CCO)CC2`, the melting point was 150 to 152 °C.
Compound `CN1C(=O)CC[C@]2(C)c3ccc(-c4ccccc4C#N)cc3CC[C@@H]12` has a melting point of 54 to 55 °C.
For `COC(=O)c1ncccc1Br`, the melting point was 34 to 36 °C.
In the case of `CCCCCCCC(=O)NCc1ccsc1`, the melting point was 71 to 72 °C.
`CNc1c(C2=CC(C)(C)Oc3ccc(C#N)cc32)c(=O)c1=O` showed a melting point of 193 to 194 °C.
In the case of `COc1ccc(C(=O)Nc2ccccc2)cc1NC(=S)Nc1ccc(S(N)(=O)=O)cc1`, the melting point was 193 to 195 °C.
`CS(=O)c1ccc(-c2coc3ccc(-c4nnc(N)o4)cc23)cc1Cl` (stereo not given) gave a melting point of 266 to 267 °C.
In the case of `O=C(O)COc1ccc2c(=O)c3c(F)cccc3oc2c1Cl`, the melting point was 300 °C.
With `CC(C)CCN1C(=O)C2(COc3cc4c(cc32)OCCO4)c2ccccc21` (stereo not given) the melting point was 134 to 137 °C.
Compound `O=C(O)CSSc1ccc([N+](=O)[O-])cc1C(Cl)(Cl)Cl` has a melting point of 140 °C.
Compound `Cc1ccc(-c2ccc3c(c2)OCO3)cc1` has a melting point of 57 to 60 °C.
`Cn1ncc2c1-c1c(Sc3ccccn3)sc(C(=O)O)c1CC2` showed a melting point of 231 to 232 °C.
In the case of `C=CCNCCC(OC)(c1ccccc1)c1ccccc1`, the melting point was 40 to 50 °C.
`CC(CF)(CF)C1=NC(c2ccc(C(C)(C)C)cc2)CO1` (stereo not given) gave a melting point of 62 to 63 °C.
Work on `CN(C)C(=O)Nc1c(C(=O)c2cccc(Cl)c2)[nH]c2cc(Cl)ccc12` yielded a melting point of 214 to 221 °C.
`Cc1cc(OCc2cn(-c3ccc(C(F)(F)F)cn3)nc2C)ccc1CCC(=O)O` showed a melting point of 144 to 145 °C.
For `CC(C)(C)C(CO)NC(=O)C(CC(=O)O)n1ccc(-c2ccc(-c3ccc(C(N)=O)cc3)cc2)c1` (stereo not given), the melting point was 192 to 194 °C.
For `CCCCC(CC)COC(=O)C(=Cc1ccc(-c2nc3ccccc3o2)cc1)C(=O)CC` (stereo not given), the melting point was 82 to 83 °C.
`O=C(O)c1cccc2c(=O)c3ccccc3[nH]c12` gave a melting point greater than 300 °C.
Work on `ON=C1CCC2(CC1)OC(c1ccccc1)c1ccccc12` (stereo not given) yielded a melting point of 172 to 175 °C.
Work on `O=C1NC(=O)C(Cc2ccc3nc(Cc4ccc(Cl)cc4)oc3c2)S1` (stereo not given) yielded a melting point of 220 °C.
Compound `Cc1ccc2c(n1)sc1c(Cl)nnnc12` has a melting point of 188 to 189 °C.
With `COc1ccc(C2=NN(C3CCN(C(=O)N4CCOCC4)CC3)C(=O)[C@H]3CC=CC[C@@H]23)cc1Cl` (relative stereo) the melting point was 185 to 186 °C.
For `O=C(c1ccccc1)c1cccc2c1CCCC2C(=O)O` (stereo not given), the melting point was 164 to 165 °C.
Compound `CNc1ncnc(N2CCc3ccccc32)n1` has a melting point of 185 to 187 °C.
Compound `O=C(O)CNC(=O)C(S)Cc1ccccc1` (stereo not given) has a melting point of 55 to 58 °C.
Work on `COC(=O)c1ccc(OC)c2oc3ccnc(O)c3c12` yielded a melting point of 205 to 207 °C.
With `NC(=O)c1ncn2c1[C@@H]1CCCN1C(=O)c1c-2ccc(F)c1F` the melting point was 221 to 224 °C.
`CC(=O)Nc1ccc(C(=O)O)cc1OCCO` gave a melting point of 208 °C.
For `Cc1ccc(C2CC(=O)OC(=O)C2)cc1`, the melting point was 160 to 162 °C.
Compound `COC(=O)c1cc(N=Nc2ccc(S(=O)(=O)Nc3ccccn3)cc2)ccc1OC(C)=O` has a melting point of 204 to 207 °C.
For `COc1cc(C(O)C(C)C)cc2c1OC(C)(C)C2` (stereo not given), the melting point was 113 to 116 °C.
Compound `CN(c1cccc2cc(-c3ncc(CN4CCOCC4)s3)[nH]c12)S(=O)(=O)c1cccs1` has a melting point of 181 to 182 °C.
In the case of `NNC(=O)c1cccc(Cc2c[nH]cn2)c1O`, the melting point was 190 °C.
For `COC(=O)C(O)C(NCc1ccccc1)c1ccc([N+](=O)[O-])cc1` (stereo not given), the melting point was 147 to 149 °C.
With `CC(CN1CCN(c2ccc(C(=O)O)cc2)CC1)Oc1ccccc1` (stereo not given) the melting point was 152 to 154 °C.
`CN(C)Cc1c(-c2ccc(OC(F)F)c(OC3CC3)c2)[nH]c2cn[nH]c(=O)c12` showed a melting point of 154 to 157 °C.
Work on `CC(C)(C)c1ccc(NC(=O)c2ccc(C#N)cc2)cc1` yielded a melting point of 210 to 211 °C.
Compound `CCn1cc(C(=O)O)c(=O)c2cc(F)c(N3CCN(Cc4ccc(N)cc4)CC3)c(F)c21` has a melting point of 220 to 221 °C.
With `CC(C)=Cc1sc(C#N)c2c1C(=O)CC(C)(C)C2` the melting point was 115 to 117 °C.
For `COc1ccc(-c2cc(=O)cc(N3CCOCC3)o2)cc1`, the melting point was 220 °C.
Work on `CC1(C)CCCC(C)(C)N1Cc1ccc2cc(NC(=O)c3ccc(-c4ccc(Cl)cc4)cc3)ccc2c1` yielded a melting point of 244 to 246 °C.
With `COC(=O)Nc1ccc(-c2ncon2)cc1` the melting point was 174 to 176 °C.
Compound `Cc1cc2nc(Cl)sc2cc1C` has a melting point of 175 °C.
With `CCC1OC(=O)CC(O)C(C)C(OC2OC(C)CC(N(C)C)C2O)C(CC=O)CC(C)C(=O)C=CC2(C)OC2C1C` (stereo not given) the melting point was 128 to 130 °C.
In the case of `Cc1ccc(N2C(=O)C(O)=C(C(=O)c3ccc(C(C)C)cc3)C2c2ccc(Oc3ccccn3)cc2)nn1` (stereo not given), the melting point was 280 °C.
In the case of `Cc1cc(C)n(-c2nc(Nc3cccc(C(F)(F)F)c3)c3ccccc3n2)n1`, the melting point was 233 to 240 °C.
For `COc1ncnc(OC)c1N`, the melting point was 94 to 96 °C.
With `CCCCCCCCCCCC1CCC(O)C(=O)O1` (stereo not given) the melting point was 95 to 96 °C.
`Cc1ncc([N+](=O)[O-])n1CCN(CCCCCCCCN(CCn1c([N+](=O)[O-])cnc1C)CCn1c([N+](=O)[O-])cnc1C)CCn1c([N+](=O)[O-])cnc1C` showed a melting point of 157 to 158 °C.
`N#Cc1cnc2sc(-c3ccc(C=O)cc3)cc2c1Nc1cccc2[nH]ccc12` gave a melting point greater than 245 °C.
For `Nc1nc2c(ncn2CCC(COC(=O)n2ccnc2)COC(=O)n2ccnc2)c(=O)[nH]1`, the melting point was greater than 300 °C.
In the case of `COc1cc2sc(C(=O)O)cc2c(Cl)c1OC`, the melting point was 267 to 270 °C.
In the case of `Cc1oc(-c2ccccc2)nc1COc1ccccc1CCCC1SC(=O)NC1=O` (stereo not given), the melting point was 173 to 174 °C.
With `O=C(O)c1ccc(NCc2cccc(C(F)(F)F)c2)cn1` the melting point was 216 to 217 °C.
Compound `CCC(=O)C(O)=NNc1cc([N+](=O)[O-])ccc1Br` has a melting point of 263 to 265 °C.
Compound `CCCC(=O)Nc1ncc(C(C)C)s1` has a melting point of 95 to 97 °C.
Compound `CC(C)(C)c1cc(CCCBr)cc(C(C)(C)C)c1O` has a melting point of 52 to 54 °C.
In the case of `CC(C)CC(NS(=O)(=O)c1ccc(Cl)cc1)C(=O)Nc1ccc(CC(=O)O)cc1` (racemic), the melting point was 208 to 209 °C.
With `CC(C)OC(=S)NC1(N=NC(C)(C)C)CCCCC1` the melting point was 62 to 64 °C.
Work on `COc1c(C)c(C)c(OC)c(C(O)(c2ccc(C(C)C)cc2)C2CCN(Cc3ccccc3)CC2)c1C` (stereo not given) yielded a melting point of 105 to 108 °C.
Compound `CC1CC(=O)NN=C1c1ccc2c(c1)N(C)C(=O)CO2` (stereo not given) has a melting point of 215 to 218 °C.
Compound `Nc1ncnc2c1c(-c1ccc(Oc3ccccc3)cc1)cn2C1CCOC1` (stereo not given) has a melting point of 165 to 166 °C.
`Cc1c2cccc(-c3cccc(C(=O)NCCC#N)c3)c2nn1Cc1cccc(C(F)(F)F)c1` showed a melting point of 196 to 197 °C.
Work on `CNC(=S)NCCS(=O)Cc1nc[nH]c1C` (stereo not given) yielded a melting point of 139 to 140 °C.
`NS(=O)(=O)c1ccc(-n2cnc3c(-c4ccc(C(F)(F)F)cc4F)ncnc32)cc1` showed a melting point of 244 to 245 °C.
Work on `COC(=O)c1cn(-c2cc(C(=O)OC)c([N+](=O)[O-])cc2C(F)(F)F)cn1` yielded a melting point of 136 to 138 °C.
Compound `CC1Cc2cc(OCc3ccccc3)c(Cl)c(Cl)c2C1=O` (stereo not given) has a melting point of 153 to 155 °C.
In the case of `O=C(O)CCc1cn(Cc2cccc(C(=O)NCc3ccc(C(F)(F)F)cc3)c2)nc1-c1ccccc1`, the melting point was 165 to 166 °C.
`CC(C)c1cc2n(CCc3ccccc3)cc(C(=O)O)c(=O)n2n1` gave a melting point of 220 to 225 °C.
Compound `O=C(O)Cc1ccc2c(c1)CCc1ccccc1C2=O` has a melting point of 154 °C.
For `CS(=O)(=O)c1cccc(NC(=O)c2cnn3c(C(F)(F)F)cc(-c4ccc(C(F)(F)F)c(OCC(F)(F)F)c4)nc23)c1`, the melting point was 227 °C.
With `Cc1nc2ccc(N3CCN(CCCC(=O)c4ccc(F)cc4)CC3)nc2nc1C` the melting point was 155 to 156 °C.
`CC(C)CN1C(=O)C(C)(C)C(=O)Nc2ccc(C=O)cc21` showed a melting point of 208 to 211 °C.
In the case of `COc1cc(-n2c(C)c(CC(=O)O)c3cc(C)ccc32)nc(OC)n1`, the melting point was 197 to 198 °C.
With `C=C1C(O)C(CO)OC1n1cc(F)c(N)nc1=O` (stereo not given) the melting point was 185 to 187 °C.
For `COc1cc2ncnc(N3CCN(C(=S)Nc4cc(O)nc(O)n4)CC3)c2cc1OC`, the melting point was 283 to 285 °C.
`COc1ccc(Sc2ccc(C=[N+]([O-])C(C)(C)C)o2)cc1` showed a melting point of 91.7 °C.
With `O=C(O)c1cc(OCc2ccc(Cl)cc2)c(C(=O)c2ccccc2)c([N+](=O)[O-])c1` the melting point was 253 to 254 °C.
Compound `NCc1ccccc1C1CCN(c2nc3c(cc2F)c(=O)c(C(=O)O)cn3C2CC2)C1` (stereo not given) has a melting point of 226 to 228 °C.
With `O=C(O)c1ccc(OCCCCCCc2cccc(O)c2O)c(Cl)c1` the melting point was 157 to 160 °C.
`CCN(CC)CCSC1=C(C#N)C(c2ccccn2)(c2ccccn2)C(=O)N1` gave a melting point of 135 to 136 °C.
For `CC(=Cc1c2n(c3ccncc13)CCC2)[N+](=O)[O-]`, the melting point was 141 to 142 °C.
Compound `CCCCc1ncc(CSC(CC(=O)O)C(=O)O)n1Cc1ccc(C(=O)O)cc1` (stereo not given) has a melting point of 140 °C.
In the case of `CCOC(=O)c1cc(O)ccc1CCc1cc2cc(C#N)ccc2o1`, the melting point was 133 to 135 °C.
With `CCc1cccc(-c2ccc(S(=O)(=O)N3c4ccccc4CC3C(=O)NCc3ccc(CC(=O)OC)cc3)cc2)c1` (stereo not given) the melting point was 70 to 75 °C.
`COc1cc(C)c(O)c(C(=O)NCCc2ccc(N=C(N)c3cccs3)cc2)c1` showed a melting point of 175 to 176 °C.
`Cc1cccc2[nH]c3c4c(Cl)cccc4nc-3cc12` gave a melting point of 170 to 172 °C.
Work on `CCC(=O)c1ccc(C#C[Si](C)(C)C)cc1` yielded a melting point of 36 to 37 °C.
Work on `CCOC(=O)c1ccc(/C=C(\C)c2ccc3c(c2)CCCCO3)cc1` yielded a melting point of 60 to 61 °C.
Compound `COc1ccc(C(C)(C)C)cc1C(=O)c1cc([N+](=O)[O-])ccc1Cl` has a melting point of 136 to 139 °C.
In the case of `CC(=O)N1CCc2cc(CC(C)N)cc(C#N)c21` (stereo not given), the melting point was 94 to 96 °C.
Compound `CCN(CC)C(=O)COc1ccc(C(O)(CC)c2cccc(C(F)(F)F)c2)cc1` (stereo not given) has a melting point of 83 to 84 °C.
